In patent publication US20250122166A1, “SUBSTITUTED N-((2-(2,6-DIOXOPIPERIDIN-3-YL)-1-OXOISOINDOLIN-4-YL)METHYL)BENZAMIDE ANALOGS AS MODULATORS OF CEREBLON PROTEIN” (ST. JUDE CHILDREN'S RESEARCH HOSPITAL, INC., priority 2021, published 2025) one finds IC50 and EC50 data, which are given here for 14 compounds.

The target in one assay is 6XHis-CRBN-DDB1 protein (Homo sapiens (Human), UniProt Q96SW2). Briefly: CRBN fluorescence polarization assay (competitive, Cy5-O-Len probe). The following applies: 6XHis-CRBN-DDB1 200 nM, Cy5-O-Len probe 30 nM, 1 hour; mean of three determinations; read-out: CRBN FP (IC50). In kind it is binding. As to the method:
In this competitive fluorescent polarization assay Cy5 conjugated lenalidomide analog (Cy5—O-Len)^1 was used as a fluorescent probe. 6XHis-CRBN-DDB1 protein (200 nM) and Cy5—O-Len probe (30 nM) were combined in 20 mM HEPES pH 7, 150 mM NaCl, 0.005% Tween-20 assay buffer. 20 μL of this assay cocktail was dispensed into wells of Corning 3821 black 384-well plates. Compounds were transferred to the assay plate from a dose-response plate using a Pintool on a Biomek FXP Laboratory Automation Workstation (Beckman Coulter). The plates were incubated in the dark for 1 hour at room temperature and then read on an Envision plate reader (PerkinElmer, Massachusetts, USA). IC50 values were determined using a proprietary software RISE (Robust Investigation of Screening Experiments), developed in house on the Pipeline Pilot platform (Biovia, v. 17.2.0). Data represent the mean of three independent determinations.
In general terms: Fluorescence polarisation rises when a labelled molecule tumbles more slowly, as on binding a larger partner.

The subject of another assay is MOLM-13 cells. Briefly: Cell proliferation assay (Cell Titer-Glo, 72 h). It is filed as cell-based. The note with it: Homo sapiens, 72 h incubation, * = cytostatic 50%. As to the method:
MOLM-13 cell line was purchased from the Leibniz Institute DSMZ (ACC 554). The cells were cultured according to recommendations in RPMI 1640 cell culture media with 20% FBS (DSMZ). Exponentially growing MOLM-13 cells were plated at 1250 cells per well in Corning 8804BC white 384-well assay plates and incubated overnight at 37° C. in a humidified 5% CO2 incubator. Compounds were transferred to the assay plate from a dose-response plate using a Pintool on a Biomek FXP Laboratory Automation Workstation (Beckman Coulter). Cytotoxicity was determined following 72 hours of incubation using Promega Cell Titer Glo reagent according to the manufacturer's recommendation. Luminescence was measured on an Envision plate reader (Perkin-Elmer).
Compounds were screened in human cancer cell lines and each cell line was cultured in the complete medium recommended by the vendor and seeded in Corning 8804BC white 384-well assay plates at density of 1250 cells per well for MOLM-13 cells. After overnight incubation at 37° C. in a humidified 5% CO2 incubator, cells were treated with compounds in dose-response format using a Pintool on a Biomek FXP Laboratory Automation Workstation (Beckman Coulter). After 72h incubation, cell proliferation was assessed using Cell Titer-Glo (CTG) luminescent cell viability assay (Promega) according to the manufacturer's instruction. Luminescence signal was measured using an Envision plate reader (Perkin-Elmer).
In general terms: In ATP-based viability assays light output follows the ATP content of the culture.

As usually defined, the IC50 is the point on the concentration scale where inhibition reaches its midpoint. In general, EC50 refers to the concentration at which the effect is half-maximal. A high value points to weaker potency. Turning to `O=C1CCC(N2Cc3c(CNC(=O)c4ccc(F)c(Cl)c4)cccc3C2=O)C(=O)N1` (stereo not shown) [Compound 15, 3-chloro-N-((2-(2,6-dioxopiperidin-3-yl)-1-oxoisoindolin-4-yl)methyl)-4-fluorobenzamide], the IC50 on 6XHis-CRBN-DDB1 protein is less than 1000 nM. In the assay on MOLM-13 cells, the EC50 is less than 1000 nM.

In the case of `O=C1CCC(N2Cc3c(CNC(=O)c4ccc(C(F)(F)F)cc4)cccc3C2=O)C(=O)N1` (stereo not shown) [Compound 13, N-((2-(2,6-dioxopiperidin-3-yl)-1-oxoisoindolin-4-yl)methyl)-4-(trifluoromethyl)benzamide], the IC50 at 6XHis-CRBN-DDB1 protein is 1000 to 10000 nM. This compound returned an EC50 with MOLM-13 cells of less than 1000 nM.

Turning to `O=C1CCC(N2Cc3c(CNC(=O)c4cccc5cc[nH]c45)cccc3C2=O)C(=O)N1` (stereo not shown) [Compound 38, N-((2-(2,6-dioxopiperidin-3-yl)-1-oxoisoindolin-4-yl)methyl)-1H-indole-7-carboxamide], the IC50 on 6XHis-CRBN-DDB1 protein was less than 1000 nM. The compound also yielded an EC50 in the assay with MOLM-13 cells of less than 1000 nM.

In the case of `O=C1CCC(N2Cc3c(CNC(=O)c4ccc(Cl)cc4Cl)cccc3C2=O)C(=O)N1` (stereo not shown) [Compound 28, 2,4-dichloro-N-((2-(2,6-dioxopiperidin-3-yl)-1-oxoisoindolin-4-yl)methyl)benzamide], in the assay with MOLM-13 cells, the EC50 was greater than 10000 nM.

Consider `O=C1CCC(N2Cc3c(CNC(=O)c4ccc(Cl)c(F)c4)cccc3C2=O)C(=O)N1` (stereo not shown) [Compound 19, 4-chloro-N-((2-(2,6-dioxopiperidin-3-yl)-1-oxoisoindolin-4-yl)methyl)-3-fluorobenzamide], for which the IC50 at 6XHis-CRBN-DDB1 protein lay in the range of 1000 to 10000 nM. Besides, in the assay on MOLM-13 cells, the EC50 was less than 1000 nM.

As for `Cc1ccc(F)cc1C(=O)NCc1cccc2c1CN(C1CCC(=O)NC1=O)C2=O` (stereo not shown) [Compound 32, N-((2-(2,6-dioxopiperidin-3-yl)-1-oxoisoindolin-4-yl)methyl)-5-fluoro-2-methylbenzamide], the half-maximal inhibitory concentration (IC50) at 6XHis-CRBN-DDB1 protein was 1000 to 10000 nM. The same compound displayed an EC50 in the assay on MOLM-13 cells greater than 10000 nM.

For `O=C1CCC(N2Cc3c(CNC(=O)c4ccncc4)cccc3C2=O)C(=O)N1` (stereo not shown) [Compound 6, N-((2-(2,6-dioxopiperidin-3-yl)-1-oxoisoindolin-4-yl)methyl)isonicotinamide], the EC50 with MOLM-13 cells is greater than 10000 nM.

On to `O=C1CCC(N2Cc3c(CNC(=O)c4ccccc4)cccc3C2=O)C(=O)N1` (stereo not shown) [Compound 10, N-((2-(2,6-dioxopiperidin-3-yl)-1-oxoisoindolin-4-yl)methyl)benzamide], for which, in the assay on MOLM-13 cells, the EC50 fell in the range of 1000 to 10000 nM.

Regarding `O=C1CCC(N2Cc3c(CNC(=O)c4cccnc4)cccc3C2=O)C(=O)N1` (stereo not shown) [Compound 8, N-((2-(2,6-dioxopiperidin-3-yl)-1-oxoisoindolin-4-yl)methyl)nicotinamide], the concentration giving a half-maximal response (EC50) with MOLM-13 cells is greater than 10000 nM.

Turning to `Cc1ccc(C(=O)NCc2cccc3c2CN(C2CCC(=O)NC2=O)C3=O)cc1` (stereo not shown) [Compound 11, N-((2-(2,6-dioxopiperidin-3-yl)-1-oxoisoindolin-4-yl)methyl)-4-methylbenzamide], in the assay with MOLM-13 cells, the EC50 lay in the range of 1000 to 10000 nM.

`O=C1CCC(N2Cc3c(CNC(=O)c4ccc(Br)cc4)cccc3C2=O)C(=O)N1` (stereo not shown) [Compound 18, 4-bromo-N-((2-(2,6-dioxopiperidin-3-yl)-1-oxoisoindolin-4-yl)methyl)benzamide] returned an EC50 in the assay with MOLM-13 cells of less than 1000 nM.

`O=C1CCC(N2Cc3c(CNC(=O)c4ccc(Cl)c(Cl)c4)cccc3C2=O)C(=O)N1` (stereo not shown) [Compound 14, 3,4-dichloro-N-((2-(2,6-dioxopiperidin-3-yl)-1-oxoisoindolin-4-yl)methyl)benzamide] had an EC50 in the assay on MOLM-13 cells of less than 1000 nM.

Turning to `O=C1CCC(N2Cc3c(CNC(=O)c4ccco4)cccc3C2=O)C(=O)N1` (stereo not shown) [Compound 2, N-((2-(2,6-dioxopiperidin-3-yl)-1-oxoisoindolin-4-yl)methyl)furan-2-carboxamide], in the assay with MOLM-13 cells, the EC50 is greater than 10000 nM.

With `O=C1CCC(N2Cc3c(CNC(=O)c4ccc(Cl)c(C(F)(F)F)c4)cccc3C2=O)C(=O)N1` (stereo not shown) [Compound 21, 4-chloro-N-((2-(2,6-dioxopiperidin-3-yl)-1-oxoisoindolin-4-yl)methyl)-3-(trifluoromethyl)benzamide], the EC50 in the assay with MOLM-13 cells is less than 1000 nM.
